Assay results from US7745420B2, “Methods for increasing in vivo efficacy of oligonucleotides and inhibiting inflammation in mammals” (Topigen Pharmaceutique, Inc., priority 2001, dated 2010).
[DAP] = 2,6-diaminopurine base replacing adenine; [I] = hypoxanthine (inosine)

Key:
[1] = test system: rat model of asthma; experiment: Cellular influx into the lungs after antigen challenge (lung lavage differential cell count); type: in vivo; conditions: 200 μg intratracheal before ovalbumin challenge; for inhibition of recruitment of eosinophils: bronchoalveolar lavage after 15 hours
Method: (§1) Active sensitization of rats was performed by subcutaneous injection of 1 ml of saline containing 1 mg of chicken egg ovalbumin (OA) (Sigma, St. Louis, Mo.) and 3.5 mg of aluminum hydroxide gel (BDH Chemicals, Poole, UK).
On day 14 after sensitization with ovalbumin, after general anesthesia with 65 mg/Kg pentothal and endotracheal intubation, ovalbumin challenge is performed by injecting 200 micrograms of ovalbumin in 60 μl intratracheally. After 8 hours or 15 hours, the rats are again intubated after general anesthesia and a lung lavage consisting of 5 times 5 ml instillation of 0.9% saline is performed. Cells are washed, counted and centrifuged onto slides in a Cytospin III™. A differential cell count is performed.
On day 14, the rats were intubated after general anesthesia with pentothal (65 mg/kg) and received 200 μg of ASA4, ASA4-DAP (5′-DapCTCDapTDapTTCDapTDapGGGTG-3′; SEQ ID NO:27), AS141-DAP (5′-TGGCDapCTTTDapGGTGGCTG-3′; SEQ ID NO:29), mismatch AS141-DAP (5′-GTGCCDapTTTGDapGTGGCTG-3′; SEQ ID NO:30), combination of ASA4-DAP and AS141-DAP (total of 100 μg) or saline in 50 μl of 0.9% NaCl intratracheally. Twenty minutes later ovalbumin challenge is performed by injecting 200 μg of ovalbumin in 50 μl of 0.9% saline intratracheally. After 15 hours, the rats were again intubated after general anesthesia, and a lung lavage consisting of 5 times 5 ml instillation was performed. Cells were washed, counted and centrifuged onto slides in a Cytospin III™. A differential cell count was finally performed.

[2] = test system: rat model of asthma; conditions: see WO 99/66037; cited from earlier work
[3] = test system: rat model of asthma; experiment: Leukotriene D4 responsiveness after antigen (ovalbumin) challenge; type: in vivo; conditions: 200 μg intratracheal, 15 hours after ovalbumin challenge; for airway responsiveness to leukotriene D4: vs control challenged and DAP mismatch treated rats
Method: as §1
(§2) The equipment and methodology for measuring pulmonary resistance was as previously described (Renzi, P. M., et al. Am. Rev. Respir. Dis 146: 163-169, 1992). General anesthesia was induced with either pentothal (50 mg/kg) or urethane (1.1 g/kg) intra-peritoneally. Endo-tracheal intubation was then performed using a 6 cm length of PE-240™ polyethylene catheter. A heating pad was used to maintain constant body temperature and rectal temperature was monitored continuously with an electronic thermometer (Telethermometer™, Yellow Springs Instrument Co., Yellowsprings, Ohio). Lung resistance (RL) was measured during spontaneous tidal breathing with the animals in the lateral decubitus position. Flow was measured by placing the tip of the tracheal tube inside a small Plexiglass™ box (265 ml in volume). A Fleish™ No. 0 pneumotachograph coupled to a differential pressure transducer (MP-45+2 cm H20; Validyne Corp, Northridge, Calif.) was attached to the other end of the box to measure airflow, and volume was obtained by numerical integration of the flow signal. Changes in esophageal pressure were measured by using a saline-filled catheter and a differential pressure transducer (Sanborn 267 BC™; Hewlett Packard, Waltham, Mass.). The other port of the transducer was connected to the box. The esophageal catheter consisted of polyethylene tubing (PE-200™) 20-cm long attached to a shorter length (6 cm) of tubing (PE-100™). Transpulmonary pressure was computed as the difference between esophageal and box pressure. The airway response was evaluated from RL, which was determined by fitting the equation of motion of the lung by multiple linear regression using commercial software (RHT-Infodat Inc., Montreal, Quebec, Canada).
We have previously shown that the antisense ASA4 (5′-ACTCATATTC ATAGGGTG-3′; SEQ ID NO:26) directed against the rat CCR3 receptor was effective at inhibiting eosinophil influx into the lungs after antigen challenge (see WO 99/66037). We employed the same oligonucleotide sequences for these experiments. […] After 15 hours, the rats were again intubated after general anesthesia, baseline lung resistance measured and doubling concentrations of leukotriene D4 injected intratracheally (50 ng to 1600 ng) until baseline lung resistance doubled (EC200).

[4] = test system: sensitized Brown Norway rats; experiment: Airway responsiveness (lung resistance) to intratracheal adenosine, DAP nucleoside and DAP analogs; type: in vivo, rat
Method: as §1, §2
On day 14 post-sensitization, rats were anesthetized with pentothal (65 mg/kg), intubated, and baseline RL was measured. Rats were given incremental doses intratracheally of adenosine (CAS 58-61-7), 2,6-diaminopurine hemisulfate salt (CAS 69369-16-0), DAP (2-amino-2-deoxyadenosine; CAS 4546-70-7), 2-amino-9-(B-D-2′-deoxyribo furanosyl)purine (CAS 3616-24-8), 7-Deaza-2′deoxyadenosine (CAS 60129-59-1), N6-Methyl-2′-deoxyadenosine (CAS 2002-35-9), 2-aminoadenosine/2,6-diamunopurine riboside (CAS 2096-10-08) over the dose range of 0.125 μg to 100 μg in 50 μl of either saline or saline plus acetic acid. Immediately after each dose RL was measured. DAP was dissolved as follows: 3 mg of DAP was combined with 100 μl of acetic acid, adjusted to 1.5 to 3 ml by the addition of saline, and heated to 70° C. This gave a final concentration of 1 to 2 μg/μl. Dilutions were performed in the same buffer. Control animals received saline with acetic acid at the same final concentration as indicated.

[5] = test system: sensitized but unchallenged Brown Norway rats; experiment: Cellular influx into the lungs after adenosine or DAP administration; type: in vivo, rat
Method: Fourteen days after sensitization, the rats were intubated after anesthesia with pentothal 65 mg/kg, and 100 μg of adenosine or 2-amino-2′-deoxyadenosine or of 2-amino-2′deoxyadenosine followed 10 minutes later by adenosine or of saline was injected intratracheally in 50 μl. Fifteen hours later, the rats were intubated after general anesthesia with pentothal, and a lung lavage was performed and the cells were counted as described above.
In another experiment, groups of six sensitized but unchallenged Brown Norway rats were anesthetized with pentothal and endotracheally intubated. The rats then received an intratracheal injection of either (1) saline (control), (2) 100 μg of adenosine, (3) 100 μg of 2-amino-2′-deoxyadenosine (DAP) or (4) 100 μg of DAP followed by 100 μg of adenosine 10 minutes later. The rats were awakened, re-anesthetized and intubated 15 hours later for a lung lavage. Cells that were present in media collected from the lavage, were counted and a differential was obtained on Cytospin∩ slides.

[6] = test system: common Beta chain of human GM-CSF, IL-3 and IL-5 receptor; experiment: Semi-quantitative RT-PCR of common beta chain mRNA in U937 cells treated with antisense; type: cell-based; conditions: 10 μmol, six hours, compared to AS107
Method: Experiments were performed to assess whether antisense oligonucleotides described in international application WO 99/66037 (incorporated herein) directed against the common beta sub-unit of the IL-3, IL-5 and GM-CSF receptor, could inhibit the expression and the function of this receptor when modified by replacing adenosine by either 2-amino-2′-deoxyadenosine or inosine. TF-1 and U937 cells express high levels of GM-CSF receptors. In addition, TF-1 cells are dependent on GM-CSF for survival. These cells were cultured in RPMI 1640 supplemented with 10% heat-inactivated fetal calf serum, penicillin, streptomycin and 1-glutamine at 37° C. in 5% CO2 (the TF-1 cells were supplemented with GM-CSF). […] The sequence for 107A-DAP was: 5′-GGGTCTGCDapGCGGGDapTGGT-3′ (SEQ ID NO:21); the sequence for 107A-inosine (107A-I) was: 5′-GGGTCTGCIGCGGGIT GGT-3′ (SEQ ID NO:22). The cells were retrieved and washed 3 times. RNA was then retrieved and the presence of the beta chain of the receptor was assessed by semi-quantitative RT-PCR.

[7] = at 5 fold lower concentration (1 μg)
[8] = at peak adenosine toxicity (5 μg)
[9] = 100 μg intratracheal, lung lavage 15 hours later

5′-TGGCDapCTTTDapGGTGGCTG-3′ (antisense TGGCNCTTTNGGTGGCTG; diaminopurine (Dap) replaces adenosine at two places, sugar and backbone not given here, further chemistry not given here) [AS141-DAP]
macrophage recruitment ([1]; lavage after 15 hours): significantly decreased
recruitment of eosinophils ([1]; lavage after 15 hours): effectively inhibited

5′-ACTCATATTC ATAGGGTG-3′ (antisense ACTCATATTCATAGGGTG; DNA, all phosphorothioate, methylation of C not given here) [ASA4]
inhibition of recruitment of eosinophils [1]: 84%
lymphocyte recruitment ([1]; lavage after 15 hours): significant decrease
macrophage recruitment ([1]; lavage after 15 hours): strong trends for decreases
neutrophil recruitment ([1]; lavage after 15 hours): strong trends for decreases
inhibition of the eosinophil influx that occurs after antigen challenge [2]: inhibit the eosinophil influx

5′-TGGCACTTTAGGTGGCTG-3′ (phosphorothioate backbone, further chemistry not given here) [AS141]
airway responsiveness to leukotriene D4 [3]: decreased significantly
lymphocyte recruitment ([1]; lavage after 15 hours): significant decrease
macrophage recruitment ([1]; lavage after 15 hours): significant decrease
neutrophil recruitment ([1]; lavage after 15 hours): strong trends for decreases
recruitment of eosinophils ([1]; lavage after 15 hours): effectively inhibited
inhibition of the eosinophil influx that occurs after antigen challenge [2]: inhibit the eosinophil influx

Nc1nc(N)c2ncn([C@H]3C[C@H](O)[C@@H](CO)O3)c2n1 [DAP, 2-amino-2-deoxyadenosine]
relative toxicity ranking (lung resistance) [4, 7]: adenosine>2 amino-2 deoxyadenosine/DAP>rest
relative toxicity ranking (lung resistance) [4, 8]: adenosine>N6-Methyl-2′deoxyadenosine>rest including DAP
effect on lung resistance (% baseline) after intratracheal dosing ([4]; incremental doses 0.125 μg to 100 μg intratracheal, sensitized rats): does not significantly increase lung resistance
inhibition of eosinophil recruitment induced by adenosine ([5]; 100 μg DAP followed by 100 μg adenosine 10 minutes later, lavage 15 hours later): completely inhibits the recruitment of eosinophils

5′-GGGTCTGCIGCGGGIT GGT-3′ (DNA GGGTCTGCNGCGGGNTGGT; DNA, [I] at 9, 15, backbone and methylation of C not given here) [AS107-I, reference compound]
inhibiting mRNA expression, semi-quantitative PCR [6]: not effective

Nc1ncnc2c1ncn2[C@@H]1O[C@H](CO)[C@@H](O)[C@H]1O [adenosine, reference compound]
relative toxicity ranking (lung resistance) [4, 7]: adenosine>2 amino-2 deoxyadenosine/DAP>rest
relative toxicity ranking (lung resistance) [4, 8]: adenosine>N6-Methyl-2′deoxyadenosine>rest including DAP
dose at which lung resistance peaks ([4]; incremental intratracheal doses, sensitized rats): 5 µg
effect on other cell types in lung lavage [5, 9]: without significantly affecting other cell types
increase of eosinophil recruitment into the lungs [5, 9]: more than 10 fold

5′-DapCTCDapTDapTTCDapTDapGGGTG-3′ (antisense NCTCNTNTTCNTNGGGTG; DNA, [DAP] at 1, 5, 7, 11, 13, all phosphorothioate, methylation of C not given here) [ASA4-DAP]
airway responsiveness to leukotriene D4, compared to unchallenged rats [3]: no different
airway responsiveness to leukotriene D4, compared to unmodified ASA4 [3]: tended to be more effective
airway responsiveness to leukotriene D4 [3]: significantly decreased
inhibition of recruitment of eosinophils [1]: 83%
decrease of lymphocyte recruitment ([1]; lavage after 15 hours): 74%
macrophage recruitment ([1]; lavage after 15 hours): tended to decrease
neutrophil recruitment ([1]; lavage after 15 hours): tended to decrease

CNc1ncnc2c1ncn2[C@H]1C[C@H](O)[C@@H](CO)O1 [N6-Methyl-2′deoxyadenosine, N6-methyl-2′-deoxyadenosine]
relative toxicity ranking (lung resistance) [4, 8]: adenosine>N6-Methyl-2′deoxyadenosine>rest including DAP
